According to US9677079B2, “Yeast cells expressing amyloid beta and uses therefor” (Whitehead Insititute for Biomedical Research, priority 2010, dated 2017):
“Also recorded” adds a separate entry of the source.

How the values were obtained:
[1] = tested on: strain expressing toxic levels of Aβ (ssAβ 1-42 strain); test: Clioquinol rescue: growth in liquid culture of ssAβ 1-42 strain and YFP control strain (Bioscreen, OD600); format: cell-based, Saccharomyces cerevisiae; conditions: FIG. 4
Method: To further test the effect of clioquinol, a control strain and a strain expressing toxic levels of Aβ were grown in liquid culture with various concentrations of the compound.
To generate ssAβ1-42 screening strains the ssAβ1-42 construct was moved to a pAG Gal p305 expression vector (S. Alberti, A. D. Gitler, S. Lindquist, A suite of Gateway cloning vectors for highthroughput genetic analysis in Saccharomyces cerevisiae. Yeast 24, 913 (2007)). The plasmid was digested using BstX1, gel purified and transformed into W303. The transformation was carried out in duplicate and the level of growth of 16 transformants each was tested on synthetic deficient media lacking leucine with galactose. Two strains from the independent transformations where chosen as screening strains based on their robust yet intermediate toxicity that would allow for the identification of both suppressors and enhancers. […] The control strain for wild type yeast growth is carrying a Gal inducible YFP integrated in the same fashion as the ssAβ1-42 constructs. For spotting assays strains were grown over night at 30° C. in 3 ml SD media lacking the relevant amino acids and containing glucose. Cell concentrations (OD600) were adjusted in a 96-well plate to that of the strain with the lowest concentration. Cells were then 5 fold serially diluted and spotted on SD media containing glucose (Uninduced) and galactose (Induced). Plates were incubated at 30° C. for 2 (glucose) or 3 days (galactose).
Yeast strains were grown overnight to saturation in synthetic medium with glucose as the carbon source after inoculation from a colony. These cultures were used to inoculate raffinose cultures. Raffinose cultures in log phase growth (OD600 0.7-0.9) were diluted to an OD600 of 0.03 in synthetic medium with galactose as the carbon source, and […] of the cell suspension was distributed to each well of a Bioscreen plate. […] of clioquinol (Sigma C8133, ˜95%), dissolved in DMSO at 100 times the final intended concentration, was added to each well. […]

[2] = tested on: GAL1-induced expression (GAL controlled YFP); test: GAL1-induced expression measured by flow cytometry of GAL controlled YFP; format: cell-based, Saccharomyces cerevisiae; conditions: flow cytometry of GAL controlled YFP (data not shown)

## Oc1c(I)cc(Cl)c2cccnc12 [clioquinol]
[1]; higher concentrations, ssAβ 1-42 strain and YFP control strain
  toxicity at higher concentrations: toxic to both strains
[1]; optimal concentration, control strain expressing YFP
  growth at the optimal concentration compared with control strain: nearly as robust as that of the control strain; also recorded: restored growth levels to those of a control strain expressing YFP
[1]; ssAβ 1-42 strain in inducing (galactose) media, various concentrations
  growth of the Aβ expressing strain (dose dependence of rescue): improved the growth of the Aβ expressing strain in a dose dependent manner; also recorded: rescued growth levels in a dose dependent manner
[2]
  effect on GAL1-induced expression: did not diminish GAL1-induced expression
